Converted amounts (≈) assume the structure as drawn.
Assays:
Format in all cases: functional
[1] = system: Candida albicans; assay: Antifungal activity against fluconazole-resistant Candida albicans clinical isolate 103 by microbroth dilution method
[2] = system: Candida albicans; assay: Antifungal activity against fluconazole-resistant Candida albicans clinical isolate 103 assessed as fractional inhibitory concentration index by microbroth dilution method in presence of 8 ug/ml fluconazole
[3] = system: Candida albicans; assay: Antifungal activity against fluconazole-resistant Candida albicans clinical isolate 103 by microbroth dilution method in presence of 8 ug/ml fluconazole

| SMILES | MIC80 [1] [µg/mL] | fractional inhibitory concentration index (FICI) [2] | MIC80 [3] [µg/mL] |
| --- | --- | --- | --- |
| O=C(/C=C/c1cccs1)c1ccccc1O | > 64 | >1.06 | > 64 |
| COc1cc(/C=C/C(=O)c2ccccc2O)ccc1O | > 64 | >1.06 | > 64 |
| O=C(/C=C/c1ccc(F)cc1)c1ccccc1O | > 64 | 0.315 | 32 |
| COc1ccc(/C=C/C(=O)c2ccccc2F)cc1 | > 64 | 0.506 | 64 |
| COc1ccc(/C=C/C(=O)c2ccc(O)cc2)cc1OC | > 64 | >1.06 | > 64 |
| O=C(/C=C/c1ccc(C(F)(F)F)cc1)c1ccccc1O | > 64 | 0.506 | 64 |
| O=C(/C=C/c1ccc2c(c1)OCO2)c1ccccc1O | > 64 | 0.315 | 32 |
| COc1ccc(C(=O)/C=C/c2ccccc2)c(O)c1 | > 64 |  | 1 |
| COc1cccc(O)c1C(=O)/C=C/c1ccccc1 | > 64 | 0.188 | 16 |
| COc1cccc(O)c1C(=O)/C=C/c1ccc2c(c1)OCO2 | > 64 | 0.094 | 4 |
| COc1cccc(O)c1C(=O)/C=C/c1ccco1 | > 64 | 0.094 | 4 |
| O=C(/C=C/c1ccc(Br)cc1)c1c(O)cccc1O | > 64 | 0.188 | 16 |
| COc1cccc(O)c1C(=O)/C=C/c1cccnc1 | > 64 | 0.125 | 8 |
| O=C(/C=C/c1ccc2c(c1)OCO2)c1ccccc1Cl | > 64 | 0.315 | 32 |
| CN(C)c1ccc(/C=C/C(=O)c2ccccc2F)cc1 | > 64 | 0.125 | 8 |
| COc1ccc(/C=C/C(=O)c2ccccc2N)cc1OC | > 64 | 0.315 | 32 |
| O=C(/C=C/c1ccccc1)c1cc(Br)c(O)c(Br)c1O | 64 (≈ 161 µM) | 0.125 | 4 |
| Nc1ccccc1C(=O)/C=C/c1ccco1 | > 64 | >1.06 | > 64 |
| O=C(/C=C/c1ccc(CO)o1)c1ccccc1O | > 64 | 0.125 | 8 |
| COc1cccc(O)c1C(=O)/C=C/c1cccs1 | > 64 | 0.094 | 4 |
| COc1ccc(/C=C/C(=O)c2ccccc2Cl)cc1OC | > 64 | >1.06 | > 64 |
| COc1cccc(O)c1C(=O)/C=C/c1ccc(CO)o1 | > 64 | 0.125 | 8 |
| O=C(/C=C/c1ccco1)c1ccccc1O | > 64 | 0.506 | 64 |
| O=C(/C=C/c1ccccc1)c1ccc(O)cc1 [4'-HYDROXYCHALCONE] | > 64 | >1.06 | > 64 |
| O=c1cc(-c2ccccc2)oc2cc(O)c(O)c(O)c12 [BAICALEIN] | 32 (≈ 118 µM) | 0.188 | 4 |

Reference: ChEMBL document CHEMBL3808297, “The synthesis and synergistic antifungal effects of chalcones against drug resistant Candida albicans” (2016)
